Laboratory results as given in EP2818472A1, “Imidazo[4,5-c]pyridine and pyrrolo[3,2-c]pyridine compounds as G-protein-coupled receptor kinase 5 (GRK5) modulators” (Max-Planck-Gesellschaft zur Förderung der Wissenschaften …, priority 2013, dated 2014).

tested on: beta-TC6 cells; test: Insulin HTRF assay (relative activity Ar) in beta-TC6 cells; type: cell-based, mouse; settings: Mus musculus, Beta-TC6, 4 h, insulin HTRF, supernatant of beta-TC6 cells, incubation with test compound at 37°C for 2, 3, 4h; read-out: Ar (relative activity)
How it was run: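 beta-TC6 cells (15k/well, seeded 24 or 48 h) washed, then exposed to compound in induction buffer (0.5% DMSO final) for 2, 3 or 4 h at 37°C.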

**Q.** With `Cn1cc(-c2cc3cnc(Nc4ccncc4)cc3n2C)cn1` [Compound 135, 1-methyl-2-(1-methylpyrazol-4-yl)-N-(4-pyridyl)pyrrolo[3,2-c]pyridin-6-amine] as the compound, how does the Emax read?
**A.** The Emax was 50 to 100%.

**Q.** `Cc1cccc(Nc2cc3c(cn2)cc(-c2cnn(C)c2)n3C)c1` [Compound 136, 1-methyl-2-(1-methylpyrazol-4-yl)-N-(m-tolyl)pyrrolo[3,2-c]pyridin-6-amine] was tested. Which Emax did it give?
**A.** The Emax was 50 to 100%.

**Q.** For `Cn1cc(-c2cc3cnc(Nc4ccc(F)cc4)cc3n2C)cn1` [Compound 138, N-(4-fluorophenyl)-1-methyl-2-(1-methylpyrazol-4-yl)pyrrolo[3,2-c]pyridin-6-amine], which Emax is on record?
**A.** Its Emax is 50 to 100%.

**Q.** With `Cn1cc(-c2cc3cnc(Nc4ccccn4)cc3n2C)cn1` [Compound 139, 1-methyl-2-(1-methylpyrazol-4-yl)-N-(2-pyridyl)pyrrolo[3,2-c]pyridin-6-amine] as the compound, how does the Emax read?
**A.** Its Emax is 50 to 100%.

**Q.** With `CN(c1ccccc1)c1cc2c(cn1)cc(-c1cnn(C)c1)n2C` [Compound 140, N,1-dimethyl-2-(1-methylpyrazol-4-yl)-N-phenyl-pyrrolo[3,2-c]pyridin-6-amine] as the compound, how does the Emax read?
**A.** The Emax was 30 to 50%.

**Q.** For `COC(=O)c1ccc(Nc2cc3c(cn2)cc(-c2cnn(C)c2)n3C)cc1` [Compound 141, methyl 4-[[1-methyl-2-(1-methylpyrazol-4-yl)pyrrolo[3,2-c]pyridin-6-yl]amino]benzoate], which Emax is on record?
**A.** The Emax was 50 to 100%.

**Q.** How did the Emax turn out when `Cn1cc(-c2cc3cnc(Nc4ccc(C#N)cc4)cc3n2C)cn1` [Compound 142, 4-[[1-methyl-2-(1-methylpyrazol-4-yl)pyrrolo[3,2-c]pyridin-6-yl]amino]benzonitrile] was run?
**A.** Its Emax is 50 to 100%.

**Q.** `Cn1cc(-c2cc3cnc(Nc4ccc5c(c4)OCO5)cc3n2C)cn1` [Compound 143, N-(1,3-benzodioxol-5-yl)-1-methyl-2-(1-methylpyrazol-4-yl)pyrrolo[3,2-c]pyridin-6-amine] was tested. Which Emax did it give?
**A.** Its Emax is over 100%.

**Q.** How did the Emax turn out when `Cn1cc(-c2cc3cnc(Nc4cccc(O)c4)cc3n2C)cn1` [Compound 144, 3-[[1-methyl-2-(1-methylpyrazol-4-yl)pyrrolo[3,2-c]pyridin-6-yl]amino]phenol] was run?
**A.** Its Emax is over 100%.

**Q.** For `Cn1cc(-c2cc3cnc(N4CCOCC4)cc3n2C)cn1` [Compound 145, 4-[1-methyl-2-(1-methylpyrazol-4-yl)pyrrolo[3,2-c]pyridin-6-yl]morpholine], which Emax is on record?
**A.** The Emax was over 100%.

**Q.** With `Cn1cc(-c2cc3cnc(Nc4cccc(OC(F)(F)F)c4)cc3n2C)cn1` [Compound 146, 1-methyl-2-(1-methylpyrazol-4-yl)-N-[3-(trifluoromethoxy)phenyl]pyrrolo[3,2-c]pyridin-6-amine] as the compound, how does the Emax read?
**A.** The Emax was 30 to 50%.

**Q.** For `Cn1cc(-c2cc3cnc(Nc4ccncn4)cc3n2C)cn1` [Compound 147, 1-methyl-2-(1-methylpyrazol-4-yl)-N-pyrimidin-4-yl-pyrrolo[3,2-c]pyridin-6-amine], which Emax is on record?
**A.** Its Emax is 50 to 100%.

**Q.** `CN(C)C(=O)c1ccc(Nc2cc3c(cn2)cc(-c2cnn(C)c2)n3C)cc1` [Compound 148, N,N-dimethyl-4-[[1-methyl-2-(1-methylpyrazol-4-yl)pyrrolo[3,2-c]pyridin-6-yl]amino]benzamide] was tested. Which Emax did it give?
**A.** The Emax was over 100%.

**Q.** Which Emax does the source give for `CC(=O)Nc1cccc(Nc2cc3c(cn2)cc(-c2cnn(C)c2)n3C)c1` [Compound 149, N-[3-[[1-methyl-2-(1-methylpyrazol-4-yl)pyrrolo[3,2-c]pyridin-6-yl]amino]phenyl]acetamide] here?
**A.** Its Emax is over 100%.

**Q.** For `CC(=O)c1cccc(Nc2cc3c(cn2)cc(-c2cnn(C)c2)n3C)c1` [Compound 150, 1-[3-[[1-methyl-2-(1-methylpyrazol-4-yl)pyrrolo[3,2-c]pyridin-6-yl]amino]phenyl]ethanone], which Emax is on record?
**A.** Its Emax is 50 to 100%.

**Q.** With `Cn1cc(-c2cc3cnc(Nc4cccc(F)c4)cc3n2C)cn1` [Compound 151, N-(3-fluorophenyl)-1-methyl-2-(1-methylpyrazol-4-yl)pyrrolo[3,2-c]pyridin-6-amine] as the compound, how does the Emax read?
**A.** Its Emax is 50 to 100%.

**Q.** Which Emax does the source give for `Cn1cc(-c2cc3cnc(Nc4ccc(S(C)(=O)=O)cc4)cc3n2C)cn1` [Compound 152, 1-methyl-2-(1-methylpyrazol-4-yl)-N-(4-methylsulfonylphenyl)pyrrolo[3,2-c]pyridin-6-amine] here?
**A.** Its Emax is over 100%.
